Columns and labels:
[1] = xn = mol fraction of the nth substance listed; settings: Ring tensiometer
[2] = Ring tensiometer

OC1CCCCC1 [cyclohexanol] + CCCCCCCCC
surface tension liquid-gas [mN/m], [1]
Settings	x2 = 0	x2 = 0.003	x2 = 0.006	x2 = 0.008	x2 = 0.012	x2 = 0.022	x2 = 0.041	x2 = 0.06
293.15 K	33.15	32.91	32.7	32.65	32.24	31.79	30.67	29.88
298.15 K	32.74	32.51	32.3	32.22	31.85	31.44	30.3	29.48
303.15 K	32.35	32.11	31.84	31.78	31.49	31.09	29.91	29.11
308.15 K	31.91	31.72	31.44	31.35	31.09	30.72	29.52	28.72
313.15 K	31.58	31.36	31.08	30.94	30.75	30.38	29.17	28.37
318.15 K	31.13	30.99	30.69	30.52	30.41	29.99	28.8	27.98
323.15 K	30.78	30.54	30.3	30.07	30.02	29.62	28.41	27.56

OC1CCCCC1 [cyclohexanol] + CCCCCCCCCCCC
surface tension liquid-gas [mN/m], [1]
Settings	x2 = 0	x2 = 0.006	x2 = 0.009	x2 = 0.011	x2 = 0.022	x2 = 0.031	x2 = 0.046	x2 = 0.075
293.15 K	33.15	31.7	31.11	30.68	30.22	29.81	29.14	27.16
298.15 K	32.74	31.23	30.71	30.32	29.85	29.37	28.74	26.8
303.15 K	32.35	30.78	30.28	29.99	29.46	28.87	28.35	26.47
308.15 K	31.91	30.35	29.88	29.61	29.08	28.44	27.98	26.1
313.15 K	31.58	29.92	29.49	29.25	28.72	28.01	27.58	25.76
318.15 K	31.13	29.49	29.07	28.88	28.35	27.57	27.21	25.44
323.15 K	30.78	29	28.69	28.5	27.99	27.13	26.83	25.09

CCCCCCCCCCCC [dodecane]
[2]
Settings	surface tension liquid-gas [mN/m]
293.15 K	24.28
298.15 K	23.84
303.15 K	23.38
308.15 K	22.98
313.15 K	22.56
318.15 K	22.14
323.15 K	21.71

CCCCCCCCCCCC [dodecane] + OC1CCCCC1
[1], x1 = 1
Settings	surface tension liquid-gas [mN/m]
293.15 K	24.28
298.15 K	23.84
303.15 K	23.38
308.15 K	22.98
313.15 K	22.56
318.15 K	22.14
323.15 K	21.71

CCCCCCC [heptane]
[2]
Settings	surface tension liquid-gas [mN/m]
293.15 K	20.05
298.15 K	19.54
303.15 K	19.1
308.15 K	18.58
313.15 K	18.08
318.15 K	17.6
323.15 K	17.06

CCCCCCC [heptane] + OC1CCCCC1
[1], x1 = 1
Settings	surface tension liquid-gas [mN/m]
293.15 K	20.05
298.15 K	19.54
303.15 K	19.1
308.15 K	18.58
313.15 K	18.08
318.15 K	17.6
323.15 K	17.06

CCCCCC [hexane]
[2]
Settings	surface tension liquid-gas [mN/m]
293.15 K	18.56
298.15 K	18.03
303.15 K	17.44
308.15 K	16.92
313.15 K	16.38

CCCCCC [hexane] + OC1CCCCC1
[1], x1 = 1
Settings	surface tension liquid-gas [mN/m]
293.15 K	18.56
298.15 K	18.03
303.15 K	17.44
308.15 K	16.92
313.15 K	16.38

CCCCCCCCC [nonane]
[2]
Settings	surface tension liquid-gas [mN/m]
293.15 K	23.04
298.15 K	22.49
303.15 K	22.04
308.15 K	21.49
313.15 K	20.94
318.15 K	20.47
323.15 K	19.98

CCCCCCCCC [nonane] + OC1CCCCC1
[1], x1 = 1
Settings	surface tension liquid-gas [mN/m]
293.15 K	23.04
298.15 K	22.49
303.15 K	22.04
308.15 K	21.49
313.15 K	20.94
318.15 K	20.47
323.15 K	19.98

Source: the NIST ThermoML archive (doi:10.1021/je8004112)
